Data: patent US9757361B2, “Treatment of psoriasis and of other skin disorders associated with inhibition of differentiation of epidermal cells” (priority 2001, dated 2017)
“Also recorded” adds a separate entry of the source.

Assays:
[1] = test system: epithelial antigen (Ber-EP4); assay: Immunohistochemical staining for the epithelial antigen with the Ber-EP4 antibody; assay type: in vivo, human; conditions: 24th hour
From the text: (§1) All reaction conditions were as recommended by the manufacturer.
The monoclonal antibody Ber-EP4 is known to label the basal layer cells in normal epidermis. The outer root sheath of hair follicles, where the hair stem cells are thought to reside, are also known to be labeled with Ber-EP4.

[2] = test system: EGFR; assay: Immunohistochemical staining for EGFR; assay type: in vivo, human; conditions: lesional skin treated with cyclopamine cream for 24 hours
From the text: Epidermal growth factor receptor (EGFR) is another marker known to display downregulation of expression with the differentiation of epidermal keratinocytes. […] Ordinarily EGFR expression is not detected immunohistochemically in the suprabasal layers of normal epidermis and the return of EGFR expression to the basal layer of epidermis is regarded to be one of the first signs of effective treatment of psoriasis by various modalities [King L E Jr. et al (1990) Journal of Investigative Dermatology 95: 10S-12S]. We evaluated the EGFR expression with anti-human EGFR antibody EGFR 113 (Novocastra Lab. Ltd., U.K.) and with immunohistochemical staining with peroxidase.

[3] = test system: CD4 positive lymphocytes; assay: Immunohistochemical staining for the CD4 antigen in lesional skin; assay type: in vivo, human; conditions: treated half of lesion, 24th hour
From the text: as §1
Moreover, conversion of the CD4(−) and CD8(−) lymphocytes to the CD4(+) and CD8(+) lymphocytes is viewed widely in the prior art as a requirement for their psoriatic plaque causing action [reviewed in Krueger J G (2002) Journal of the American Academy of Dermatology 46:1-23].

[4] = test system: psoriatic lesions; assay: Topical treatment of psoriatic lesions of patients, clinical response and EES scoring; assay type: in vivo, human
Procedure: The base cream used is made predominantly of heavy paraffin oil (10% w/w), vaseline (10% w/w), stearyl alcohol (8% w/w), polyoxylsteareth-40 (3% w/w) and water (68% w/w) but another suitably formulated base cream is also possible. […] The dosing and the application schedules followed for the lesion shown in FIG. 1A (psoriatic plaque on the dorsum of hand) are as follows: about 30 μl cream applied directly onto the lesion with the aid of a steel spatula every four hours for 24 hours. The cream-applied area is protected from accidental smearing and loss of the cream by covering with an aluminum applicator (FIG. 1 B). The dosing and the application schedules followed for the lesion shown in FIG. 1 D (psoriatic plaque at the scapular region) are as follows: about 30 μl cream applied directly onto the lesion every four hours for 24 hours. The cream-applied area is similarly covered against the smearing and loss of cream. Other treated psoriatic patients and lesions received from about 30 to 35 μl cream to each lesion at intervals of every 3 to 5 hours, as suitable and convenient. Lesions were similarly covered against the smearing and loss of cream. […] The corticosteroid used for treatment of the lesion shown in FIG. 4E was clobetasol 17-propionate in a final concentration of about 1.1 mM in base cream. […] Other corticosteroid molecules well known in the art are contemplated to be also suitable and capable of replacing the above-mentioned corticosteroid molecules at suitable concentrations (the suitable concentration ranges for corticosteroids are also known in the art).
(§2) At intervals of 4 hours, approximately 30 μl cream was applied directly onto the lesion and the cream-applied region was covered against accidental smearing and loss of the cream (FIG. 1 B).
Treatment was then discontinued and the lesion was followed-up.
Severity of psoriatic lesions can be assessed on a semi-quantitative scale by giving separate scores for the erythema, elevation and scaling of a lesion and then by summing up the scores to obtain a score called the EES score of that lesion (Bowman P. H. et al. (2002) J. Am. Acad. Dermatol. 46:907-913).

[5] = Follow-up of healthy / non-lesional skin after topical cyclopamine for adverse effects; conditions: for adverse effect of topical application on healthy / non-lesional skin: described concentration and dosing conditions
[6] = test system: psoriatic lesional skin; assay: Histopathological examination (H&E) of treated psoriatic lesional skin; assay type: in vivo, human; conditions: treated half of lesion, 24th hour
Procedure: as §2
FIG. 2A to FIG. 2W show histopathological and immunohistochemical examination findings of the tissue sections from the non-lesional skin, cyclopamine-treated lesional skin and non-treated lesional skin. Compared to the non-lesional skin (FIG. 2A), the non-treated lesional skin (FIG. 2B) is seen to display the typical histopathological signs of a psoriatic skin lesion mentioned above in the “Background of Invention”. Tissue sections from the cyclopamine-treated half of the original lesion reveal, however, dramatic improvement and regression to normalcy. These histopathological signs of regression to normalcy, exemplified in the FIG. 2C and FIG. 2D (examples from other cyclopamine-treated lesions and patients are given later) include the following: […]

[7] = test system: cytokeratin 15; assay: Immunohistochemical staining with the C8/144B antibody (cytokeratin 15); conditions: 24th hour
From the text: (§3) All antibodies and reagents for these immunohistochemical investigations were purchased from DAKO (Glostrup, Denmark); human Ki-67 antigen was detected by the monoclonal antibody M7187, human epithelial antigen was detected by the monoclonal antibody Ber-EP4, human CD4 antigen was detected by the monoclonal antibody M0716, human CD8 antigen was detected by the monoclonal antibody C8/144B. Besides the CD8 antigen, the monoclonal antibody C8/144B is known to recognize and bind to the cytokeratin 15 expressed by the hair stem cells (Kanitakis J. et al. (1999) Eur. J. Dermatol. 9:363-365). A DAKO “universal visualization kit” (LSAB2) employing biotinylated secondary antibody and peroxidase-conjugated streptavidin (pre-diluted to match the dilutions of DAKO-supplied primary antibodies) was used for the visualization reactions. All reaction conditions were as recommended by the manufacturer.

[8] = test system: CD44; assay: Immunohistochemical staining for the CD44 antigen; assay type: in vivo, human; conditions: lesional skin, 24th hour of treatment
From the text: What might be the key/proximal pathogenic event(s) intervened by cyclopamine? […] Both FIG. 4G and a closer-up view on FIG. 4H show decreased CD44 expression in the suprabasal and spinous layers in lesional epidermis in comparison to the situation in non-lesional epidermis.

[9] = test system: Ki-67 antigen; conditions: treated lesional skin, 24th hour
From the text: as §3
The Ki-67 antigen is a marker of the proliferating cells.

[10] = test system: basal cell carcinoma cells; conditions: found earlier, PCT/TR 01/00027; cited from earlier work

SMILES: CC1=C2C[C@H]3[C@@H](CC=C4C[C@@H](O)CC[C@@]43C)[C@@H]2CC[C@]12O[C@@H]1C[C@H](C)CN[C@H]1[C@H]2C [cyclopamine]
- Ber-EP4 staining of basal cells of non-lesional skin after exposure ([1]; non-lesional skin in psoriasis): remained Ber-EP4 positive
- Ber-EP4 labeling of epidermal basal layer cells of lesional skin ([1]; treated lesional skin): cyclopamine-induced reversion to normalcy; also recorded: Epidermal basal layer cells are seen to display the epithelial antigen; also recorded: reverted to normalcy
- EGFR expression in lesional epidermis [2]: rapidly normalized within 24 hours
- CD4 positive lymphocytes infiltrating the lesional skin [3]: Disappearance of the CD4 positive lymphocytes from the dermis of treated area; also recorded: largely cleared
- day on which the lesion cleared / became undetectable ([4]; 18 mM cyclopamine cream every fourth hour for 24 hours, then follow-up without treatment): > 8 days
- days of continued treatment until the lesion cleared ([4]; application every fourth hour until clearance): 3 to 4 days
- lesions subjected to single-day treatment that failed to clear completely ([4]; human, in vivo): about 29%
- effectiveness on treated psoriatic lesions of different patients and body parts ([4]; patients 29 to 57 years, lesions on extremities to trunk): highly effective on every psoriatic lesion for which it was used
- appearance of lesion site on the 14th day of follow-up ([4]; plaque at left scapular region, 1 day of treatment, FIG. 1F): No lesion is visible, skin appears normal
- appearance of lesion after 1 day of treatment and 7 days of follow-up ([4]; plaque at left scapular region, FIG. 1E): With the possible exception of slight erythema, lesion is no longer visible
- site of the treated lesion over a month of follow-up ([4]; scapular plaque, 1 day of treatment): healthy-looking normal skin
- longest duration of follow-up of healthy skin with no adverse effect found ([5]; at the time of writing of the invention): over 14 months
- adverse effect of topical application on healthy / non-lesional skin [5]: no adverse effect has been detected
- adverse effect of topical application on healthy / non-lesional skin ([5]; listed as Cyclopamine): did not adversely affect the non-lesional skin; also recorded: no detectable adverse effect
- follow-up of skin sites of application showing healthy-looking normal skin and hair ([5]; interval since filing of PCT/TR 02/00017): more than 31 months
- granular layer of epidermis [6]: Vigorous re-appearance
- hyperkeratosis and parakeratosis in the stratum corneum [6]: decreased but full normalization of this oldest epidermal layer did not yet happen
- inflammatory cells infiltrating the subepidermal dermis [6]: Disappearance from the cyclopamine-treated lesional skin of most of the inflammatory cells
- rete ridges and epidermal hyperplasia [6]: Return of the thickened and elongated rete ridges to normal levels and marked decrease of epidermal hyperplasia
- suprapapillary epidermis and papillary edema [6]: Return of the thinning of the suprapapillary epidermis to normalcy and the disappearance of papillary edema
- cytokeratin 15 in basal cells of non-lesional epidermis after exposure ([7]; non-lesional skin): continued to be positive for the cytokeratin 15
- C8/144B (cytokeratin 15) labeling of epidermal basal layer cells of lesional skin ([7]; treated lesional skin): consistent restoration of the lost cytokeratin 15 expression; also recorded: normalized and became labeled by the C8/144B antibody
- CD44 expression in lesional epidermis [8]: rapid induction and normalization of the CD44 expression; also recorded: increase and normalization of the expression of CD44
- frequency and epidermal position of Ki-67 antigen positive cells [9]: Return of the Ki-67 displaying cells to the epidermal basal layer; also recorded: return of both the frequency and the epidermal position of the Ki-67 antigen positive cells to normalcy
- Ber-EP4 staining of basal cells of normal epidermis exposed under the same conditions [10]: continued to be Ber-EP4 positive
- effect on basal cell carcinoma cells (differentiation, Ber-EP4 staining) [10]: cause their differentiation and caused loss of their Ber-EP4 staining
